From PubChem BioAssay AID179 (DTP/NCI, 2004)
Calls of active or inactive are those of the source.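 Rule for the calls: active = compounds giving half or more protection of infected cells from virus-caused growth loss, again on retest; inactive = the rest.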

Tested on: CEM cells HIV-1 protection, formazan growth assay
Assay: NCI AIDS Antiviral Assay
Conditions: for IC50: measured here: growth of uninfected CEM cells
In short: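 Protection of CEM cells against HIV-1 measured as cell growth via soluble formazan read-out, with five concentrations tested on both infected and uninfected cells; failure to protect may reflect toxicity.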

SMILES	outcome	EC50 [µM]	IC50 [µM]
CC(=O)O[C@H]1CC[C@@]2(C)C(=CC[C@H]3C(CC#N)[C@@](C)(C#N)CCC32)C1 (some centres not stated)	inactive	–	–
COC(=O)c1ccccc1NC(c1ccccn1)c1ccc2cccnc2c1O (configuration not stated)	–	> 25.7	1.32
CC1CN2CC(C)OB(O1)OC(C)C2 (configuration not stated)	inactive	–	–
Oc1ccc(CCc2nc3ccccc3[nH]2)cc1	–	> 200	42.7
O=C1CSC(/C=C/c2ccccc2)N1c1ccc(-n2c(-c3ccccc3)nc3ccccc3c2=O)cc1 (configuration not stated)	–	> 200	105
CCOC1C2c3cc4c(cc3CC(C#N)(c3ccccc32)N1C(=O)c1ccccc1)OCO4 (configuration not stated)	inactive	–	–
O=C(c1ccccn1)c1nc(-c2ccc(Cl)c(Cl)c2)nc2ccc(Cl)cc12	inactive	–	–
CCCCN1C(=O)c2cc(=O)[nH]c(O)c2C1C (configuration not stated)	–	> 1050	676
COC(=O)C12C3C4C1C1C2C3C41I (configuration not stated)	–	> 126	> 126
COc1ncc(C#CC(=O)c2ccccc2OC)c(OC)n1	–	> 0.2	0.132
COc1cc(N=Nc2ccccc2)ccc1NCS(=O)(=O)O	–	> 200	174
Fc1nc(-c2c3ccccc3c3sc4ccccc4n23)nc(N2CCOCCOCCOCCOCC2)n1	–	> 200	51.3
O=Cc1c(O)ccc2ccc(O)c(-c3c(O)ccc4ccc(O)cc34)c12	–	> 363	20.9
CCN(CC)c1ccc2c(c1)Oc1cc(N(CC)CC)ccc1C21c2ccccc2C(=O)N1c1ccccc1	–	> 200	> 200
N#Cc1c(/N=C/c2ccccc2Cl)sc2c1CCC2	–	> 200	> 200
CC(C)c1cccc(C(C)C)c1NC(=O)/C(CC(=O)CC(c1ccccc1)c1c(O)c2ccccc2oc1=O)=N/O (configuration not stated)	–	> 89.1	> 89.1
N#CC1(C#N)C(C#N)(C#N)C1(C#N)C(N)=O	–	> 200	> 200
O=C1C=C(N2CCCC2)C=C(N2CCCC2)C1	–	> 155	81.3
C[C@@H](c1ccccc1)C(CC#N)[C@H]1CCC[C@]1(O)C#Cc1ccc2c(c1)OCO2 (some centres not stated)	–	> 200	11.5
CSc1nc(-c2ccccc2)[nH]c(=O)n1	–	> 200	> 200
C=CCCCCCCCCC(=O)NCC1CC1	–	> 200	> 200

SMILES	outcome	EC50 [µM]	IC50 [µM]
CN(C)CCCN1CCc2c([nH]c3ccccc23)C1c1cccnc1 (configuration not stated)	–	> 107	> 107
FC(F)(Oc1ccc2ccccc2c1)c1nc2ccccc2o1	–	> 200	25.7
CCOP(=O)(OCC)C(Cc1ccc(OC)cc1)NC(=O)C(CC(C)C)NC(=O)OCc1ccccc1 (configuration not stated)	–	> 126	8.91
O=C1C=C2C3c4c(cc(O)cc4C4c5c(O)cc6c(c5[C@@H]5C(c7ccc(O)cc7)C1C(=O)[C@@]25[C@@H]4c1ccc(O)cc1)[C@@H](c1cc(O)cc(O)c1)[C@H](c1ccc(O)cc1)O6)O[C@H]3c1ccc(O)cc1 (some centres not stated)	–	> 15.8	10.7
COC(=O)c1c2c(cc3c1CC1(Cc4ccccc4C1=O)C3)CCC2 (configuration not stated)	–	> 200	13.5
CN(CC1(CO)CCC1)c1cc(Cl)nc(N)n1	–	> 200	53.7
O=C1CC(c2ccsc2)NC(=O)N1CCCl (configuration not stated)	–	> 200	> 200
COc1ccc(-c2c(N)n(-c3nc4ccccc4s3)c(=O)c3cc([N+](=O)[O-])ccc23)cc1	–	> 100	1.07
C=C1CN(S(=O)(=O)c2ccc(C)cc2)CCN(C(=O)OC(C)(C)C)CCN(S(=O)(=O)c2ccc(C)cc2)C1	–	> 200	20
NCCCCCCCCCCC(=O)O	–	151	> 200
CCOC(=O)c1c(NC(=S)Nc2ccc(C)cc2)sc2c1CCN(C)C2	–	> 200	> 200
COc1ccc2[nH]c3c(C)c4ccnc(NCCCN(C)CCCN)c4c(C)c3c2c1	–	> 1	0.38
COc1cc(Nc2nc3cc(C(F)(F)F)ccc3nc2-c2ccccc2)cc(OC)c1OC	–	> 41.7	> 41.7
CCC[CH2][Sn]1([CH2]CCC)[O]C(=O)c2cccc(OC)c2[O]1	inactive	–	–
CCc1ccc(Nc2ccc([N+](=O)[O-])cc2[N+](=O)[O-])cc1	inactive	–	–
Cc1ccc(NC(=O)C(=O)C(C(=O)/C=C/c2ccccc2)C2OC(=O)c3ccccc32)c(C)c1 (configuration not stated)	–	> 427	63.1
Cc1cc(N=Nc2ccc(Sc3ccc(N=Nc4ccc(O)c(C(=O)O)c4)cc3)cc2)c(N)c(N=Nc2ccc(C(=O)O)cc2)c1N	–	> 200	27.5
Cc1cc(C)c2c(c1)CC2NC(=O)Cc1ccccc1 (configuration not stated)	–	> 26.9	> 26.9
COc1ccc(OC)c2cc(C3(C)SCCCS3)ccc12	inactive	–	–
COP(=O)(OC)C(=O)c1ccccc1	–	> 1150	> 1150
S=C(N/N=C\C(=N/NC(=S)N1CCCCC1)c1ccccc1)N1CCCCC1	–	> 200	3.8

SMILES	outcome	EC50 [µM]	IC50 [µM]
O=C(Cc1ccccc1)NN1C(=O)/C(=C\c2ccc(O)cc2)SC1=Nc1ccccc1	–	> 31.6	> 31.6
COC1=CC(=O)C(OC)=C(C2C(=O)N(C)c3ccccc32)C1=O (configuration not stated)	–	> 200	61.7
CC1=CC(C)(C)C(C#N)(C#N)C(N)=C1C#N	–	> 200	95.5
CC[CH2][Pb]([CH2]CC)([CH2]CC)[NH]S(=O)(=O)c1ccc(C)cc1	–	> 2	0.166
Cc1ccc2[nH]c(=O)c(C(C#N)c3ccccc3)nc2c1 (configuration not stated)	inactive	–	–
CC(C)C(=O)N[C@@H](C)C(=O)N(Cc1ccc2ccccc2c1)N=O	inactive	–	–
O=[N+]([O-])c1cc(C2SCc3nc4ccccc4n32)ccc1Cl (configuration not stated)	inactive	–	–
COc1cc(-c2ccc(Nc3ccccc3C(=O)O)c(OC)c2)ccc1Nc1ccccc1C(=O)O	–	> 200	0.692
Clc1ccc(CN2COc3c(ccc4ccccc34)C2)cc1Cl	–	> 200	31.6
O=[N+]([O-])c1ccc2nc(-c3ccccc3[N+](=O)[O-])[nH]c2c1	–	> 126	24.5
COC1CC2C3/C(=N/Nc4ccc([N+](=O)[O-])cc4[N+](=O)[O-])CCC2(C)C3C1 (configuration not stated)	inactive	–	–
COc1cc(C=O)c(-c2cc(OC)c(OC)cc2C=O)cc1OC	–	> 44.7	> 44.7
N#C/C(=C\c1ccc(C#N)cc1)C(=O)c1ccccc1	–	> 97.7	41.7
Cc1cc2nnc(-c3ccc(C#N)cc3)n2c2nnnn12	–	> 200	–
CCCCCCCCCCCCCCCC(=O)Nc1ccn(C2CCC(COP(=O)(O)OC3CC(n4cc(F)c(=O)[nH]c4=O)OC3CO)O2)c(=O)n1 (configuration not stated)	–	> 0.126	0.038
CC(=O)CCCCC(=O)Nc1ccc(CC(NC(=O)OC(C)(C)C)C(=O)NCC(=O)OCc2ccccc2)cc1 (configuration not stated)	–	> 200	12.9
COC1OC2COC(c3ccccc3)OC2C2N=C(N)N([N+](=O)[O-])C12OS(C)(=O)=O (configuration not stated)	inactive	–	–
CCCc1cc(=O)oc2c3c(cc(OCC)c12)O[C@H](C)[C@@H](C)C3=O	–	> 200	8.32
CN1N=CSC12C(=O)N(c1ccc(Cl)cc1)C(=O)N2c1ccc(Cl)cc1 (configuration not stated)	inactive	–	–
CCCCCCCCCc1cc(=O)c2ccc(O)cc2o1	–	> 1.91	> 1.91
CCOC(=O)/C(=C\c1cccc(F)c1)C(C)=O	–	> 398	182
